# Experimental data from US9018234B2, “Fluoro-substituted 2-aryl-3,5-dicyano-4-indazolyl-6-methyl-1,4-dihydropyridines and uses thereof” (Bayer Intellectual Property GmbH, priority 2009, dated 2015).
# Assay: Caco-2 permeability assay
# Format: in vitro ADME
# Settings: human, apical to basolateral, 2 μM test concentration, 2 h at 37° C., read-out: Caco-2 permeability PappA-B
# Text: Caco-2 Permeability Assay:
# The in vitro permeation of a test compound across a Caco-2 cell monolayer is a well-established assay system to predict the permeability from the gastro-intestinal tract [cf. P. Artursson and J. Karlsson: Correlation between oral drug absorption in humans and apparent drug permeability coefficients in human intestinal epithelial (Caco-2) cells, Biochem. Biophys. 175 (3), 880-885 (1991)]. The permeability of the compounds of the present invention in such Caco-2 cells was determined as described below:
# Human Caco-2 cells (ACC No. 169, DSMZ, German Collection of Microorganisms and Cell Cultures, Braunschweig, Germany) are seeded on 24-well insert plates and are allowed to grow for 14-16 days. For permeability studies, the test compounds are dissolved in DMSO and diluted to the final test concentration of 2 μM with transport buffer [Hanks' Buffered Salt Solution, Gibco/Invitrogen, further supplemented with glucose (final concentration 19.9 mM) and HEPES (final concentration 9.8 mM)]. For determination of the apical to basolateral permeability (PappA-B), the test compound solution is added to the apical side of the cell monolayer and transport buffer to the basolateral side of the monolayer; for determination of the basolateral to apical permeability (PappB-A), the test compound solution is added to the basolateral side of the cell monolayer and transport buffer to the apical side of the monolayer. Samples are taken from the donor compartment at the beginning of the experiment to confirm mass balance. After an incubation of 2 h at 37° C., samples are taken from both compartments. Samples are analyzed by LC-MS/MS, and the apparent permeability coefficients are calculated. Lucifer Yellow permeability is assayed for each cell monolayer to ensure cell monolayer integrity, and the permeability of Atenolol (low permeability marker) and Sulfasalazine (marker for active excretion) is determined for each batch as quality control.
# Representative results from this assay are listed in Table 2 below together with corresponding data for two structural analogs having an unsubstituted methyl group in 6-position of the 1,4-dihydropyridine ring (comparative Examples A and B, see experimental section above; disclosed generically in WO 2008/071451-A1): […]
row,Structure (SMILES),"Papp at 2 h, 2 μM [×10⁻⁶ cm/s]"
1,Cc1n[nH]c2ccc(C3C(C#N)=C(c4ccc(F)cc4)NC(C(F)F)=C3C#N)cc12 (racemic) [Example 6],15
2,"COc1ccc(C2=C(C#N)C(c3ccc4[nH]nc(C)c4c3)C(C#N)=C(C)N2)cc1 (racemic) [Example A, 2-(4-Methoxyphenyl)-6-methyl-4-(3-methyl-1H-indazol-5-yl)-1,4-dihydropyridine-3,5-dicarbonitrile, reference compound]",9.9
3,COc1ccc(C2=C(C#N)C(c3ccc4[nH]nc(C)c4c3)C(C#N)=C(C(F)F)N2)cc1 (centres unmarked) [Example 8],17
4,Cc1n[nH]c2ccc(C3C(C#N)=C(c4ccc(F)cc4)NC(C(F)(F)F)=C3C#N)cc12 (racemic) [Example 13],15.8
5,"CC1=C(C#N)C(c2ccc3[nH]nc(C)c3c2)C(C#N)=C(c2ccc(F)cc2)N1 (racemic) [Example B, 2-(4-Fluorophenyl)-6-methyl-4-(3-methyl-1H-indazol-5-yl)-1,4-dihydropyridine-3,5-dicarbonitrile, reference compound]",6.2
